The values below come from US20140296153A1, “Oligodendrocyte Differentiation” (priority 2011, published 2014).

Assay [1] relates to SVZ cells. Kind of assay: SVZ neurosphere forming assay (primary neurospheres). In kind it is cell-based, mouse. The settings on record: HGF 50 ng.ml^−1, 6 days, SFM with 5 ng/ml EGF and 2.5 ng/ml FGF-2. How it is done: Neurosphere forming and self-renewal assays were performed on SVZ cells seeded at clonal density, 2500 cells per well in 24-well cell culture plates in SFM containing 5 ng/ml EGF and 2.5 ng/ml FGF-2 and supplemented or not (control) with 1 μM Hp or 50 ng.ml^−1 hepatocyte growth factor (carrier free recombinant human HGF, R&D Systems, Lille, France). After 6 days, the numbers of primary neurospheres were determined. For self-renewal assay, neurospheres were collected, dissociated as single cells and seeded in SFM containing 5 ng/ml EGF and 2.5 ng/ml FGF-2 in 24 well plates. After 6 days, the number of secondary neurospheres was counted.
Fluorescence images were recorded using an LSM 510 Meta confocal microscope or an Axioskop 2 Plus fluorescence microscope (both from Carl Zeiss). In all experiments, measurements were performed in the border of SVZ neurospheres where migrating cells form a cell monolayer. For the SVZ neurosphere forming and self-renewal assays the experiments were replicated in five independent culture preparations and each experimental condition was assayed in four different coverslips. For the remaining experiments, each condition was assayed in three different coverslips, and except where otherwise specified, the experiments were replicated in three independent culture preparations. Percentages of TUNEL or BrdU immunoreactive cells in SVZ cell cultures were calculated from cell counts in five independent microscopic fields in each coverslip with a x40 objective (approximately 200 cells per field). Software used was Axiovision, release 4.6 (Carl Zeiss). For SCCl experiments, the percentage of oligodendrocytic-like responding cells (with a Thromb/Hist ratio above 1.3) was calculated on the basis of one microscopic field per coverslip, containing approximately 100 cells (magnification, ×40).
Neural stem-like cells are characterized in vitro by both their capacity to give rise to neurospheres and to self-renew when cultured in the presence of mitogens.

In assay [2] the test system is SVZ cells. Kind of assay: SVZ self-renewal assay (secondary neurospheres). In kind it is cell-based, mouse. As to conditions: primary neurospheres exposed to HGF 50 ng.ml^−1 for 6 days, replated without HGF.
For assay [3] the following is noted: administered to rats; cited from earlier work.
The target of assay [4] is CB1R (Homo sapiens, UniProt P21554). The settings on record: cited from earlier work.
In assay [5] the test system is OPC. The settings on record: cited from earlier work.
The test system of assay [6] is SVZ cells. Description: Single cell calcium imaging (SCCI) of oligodendrocytic differentiation. The settings on record: AM251 1 μM co-treated with Hp 1 μM, 7 days, 8 coverslips. In kind it is cell-based, mouse. How it is done: To investigate the influence of Hp on oligodendrocytic differentiation, SVZ neurospheres were allowed to develop for 7 days Hp (100 nm, 1 μM), in serum free medium devoid of growth factor at 37° C.
To determine the functional differentiation pattern of SVZ cells, we analyzed the variations of intracellular calcium-free levels ([Ca^2+]i) in single cells following stimulation with 50 mM KCl, 100 μM histamine (Sigma-Aldrich, St. Louis, Mo. USA) and 0.1 U/ml thrombin (Sigma-Aldrich) stimulation. KCl depolarization causes an increase in [Ca^2+]i in neurons, whereas stimulation with histamine leads to an increase in [Ca^2+]i in stem/progenitor cells, while thrombin leads to an increase in [Ca^2+]i in oligodendrocytes. SVZ cultures were loaded for 40 minutes with 5 μM Fura—2/AM (Molecular Probes, Carlsbad, Calif., USA), 0.1% fatty acid-free BSA, and 0.02% pluronic acid F-127 (Molecular Probes) in Krebs solution (132 mM NaCl, 4 mM KCl, 1.4 mM MgCl2, 1 mM CaCl2, 6 mM glucose, 10 mM HEPES, pH 7.4), in an incubator with 5% CO2 and 95% atmospheric air at 37° C. After a 10-minute postloading period at room temperature (RT) in the same medium without Fura-2/AM and pluronic acid, to obtain a complete hydrolysis of the probe, the glass coverslip was mounted on an RC-20 chamber in a PH3 platform (Warner Instruments, Hamden, Conn., USA) on the stage of an inverted fluorescence microscope (Axiovert 200, Carl Zeiss). […] The variations of [Ca^2+]i were evaluated by quantifying the ratio of the fluorescence emitted at 510 nm following alternate excitation (750 msec) at 340 and 380 nm, using a Lambda DG4 apparatus (Sutter Instrument, Novato, Calif., USA) and a 510 nm band-pass filter (Carl Zeiss) before fluorescence acquisition with a x40 objective and a CoolSNAP digital camera (Roper Scientific, Trenton, N.J., USA). […] KCl, histamine, and thrombin peaks given by the normalized ratios of fluorescence at 340/380 nm, at the proper time periods, were used to calculate the ratios of the responses to histamine/KCl (Hist/KCl-neuronal-like profile) and to thrombin/histamine (Throm/Hist-oligodendrocytic-like profile).
Fluorescence images were recorded using an LSM 510 Meta confocal microscope or an Axioskop 2 Plus fluorescence microscope (both from Carl Zeiss). […] Percentages of TUNEL or BrdU immunoreactive cells in SVZ cell cultures were calculated from cell counts in five independent microscopic fields in each coverslip with a x40 objective (approximately 200 cells per field). […] For SCCl experiments, the percentage of oligodendrocytic-like responding cells (with a Thromb/Hist ratio above 1.3) was calculated on the basis of one microscopic field per coverslip, containing approximately 100 cells (magnification, ×40). […]

Chain of CB1R (P21554 whole entry): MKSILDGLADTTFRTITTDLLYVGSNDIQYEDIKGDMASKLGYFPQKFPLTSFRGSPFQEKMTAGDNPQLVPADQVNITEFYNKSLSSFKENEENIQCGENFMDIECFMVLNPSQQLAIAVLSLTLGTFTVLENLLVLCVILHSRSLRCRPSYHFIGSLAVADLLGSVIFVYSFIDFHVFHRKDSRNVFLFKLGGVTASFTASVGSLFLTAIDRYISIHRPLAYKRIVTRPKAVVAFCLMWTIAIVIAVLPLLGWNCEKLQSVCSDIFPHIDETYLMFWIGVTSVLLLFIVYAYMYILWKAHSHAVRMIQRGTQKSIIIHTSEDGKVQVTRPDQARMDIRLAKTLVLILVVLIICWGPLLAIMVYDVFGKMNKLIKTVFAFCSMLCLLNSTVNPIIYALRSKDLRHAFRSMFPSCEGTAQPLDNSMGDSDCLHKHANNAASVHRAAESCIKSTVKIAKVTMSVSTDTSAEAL

Take “HGF: carrier free recombinant human HGF, used as a positive control”: in assay [1], the “number of primary neurospheres (control 100%)” value amounted to 121.0±13.14%. Also, in assay [2], the “number of secondary neurospheres (control 100%)” value is reported as 120.0±11.54%.

Consider “PVNFKWLSH (listed as Homo sapiens) [SEQ ID 4, variant of Hp peptide]”, for which the “periepididymal and visceral fat content compared to the control group” value in assay [3] is listed as “reduced”.

As for “VDPVNFKFLSH (listed as Homo sapiens) [SEQ. ID. 2, N-terminally extended variant of Hp, Val Asp Pro Val Asn Phe Lys Phe Leu Ser His]”, in assay [4], the “activity at CB1R cannabinoid receptors” value was “function as agonists”.

Regarding `Cc1c(C(=O)NN2CCCCC2)nn(-c2ccc(Cl)cc2Cl)c1-c1ccc(Cl)cc1` [rimonabant], the “OPC differentiation into mature oligodendrocytes” value in assay [5] is “do not induce but impair”.

For the compound `COc1ccc(C(=O)c2c(C)n(CCN3CCOCC3)c3cc(I)ccc23)cc1` [AM630], in assay [5], the “OPC differentiation into mature oligodendrocytes” value is recorded as “do not induce but impair”.

Take “RVDPVNFKFLSH (listed as Homo sapiens) [SEQ. ID. 3, N-terminally extended variant of Hp, Arg Val Asp Pro Val Asn Phe Lys Phe Leu Ser His]”: the “activity at CB1R cannabinoid receptors” value in assay [4] is recorded as “function as agonists”.

For `Cc1c(C(=O)NN2CCCCC2)nn(-c2ccc(Cl)cc2Cl)c1-c1ccc(I)cc1` [Am 251, reference compound], the “cells responding with a Throm/Hist ratio above 1.3 (oligodendrocyte-like responding cells)” value in assay [6] came out at 1.07±0.24%.
